According to the supplement of paper PMC10307832:

Assays:
Test in all cases: relative viability (nuclei count vs DMSO), 5 days (fraction); higher = more cells survive
CUDC-101 + Dasatinib = compound: C#Cc1cccc(Nc2ncnc3cc(OC)c(OCCCCCCC(=O)NO)cc23)c1 [CUDC-101] + Cc1nc(Nc2ncc(C(=O)Nc3c(C)cccc3Cl)s2)cc(N2CCN(CCO)CC2)n1 [Dasatinib] (partner 0.075 µM)
How it was run: (§1)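 Dosing by pin tool came one day after lung cancer cell lines were seeded in 1536-well plates, using either one drug or a fixed anchor-drug dose plus five library-drug doses (not always all listed) in √10 steps. After 5 days, nuclei were counted on 4× images. Relative viability is treated-well nuclei count divided by vehicle-well nuclei count, and values are medians of duplicate plates.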

CUDC-101 + Vorinostat = compound: C#Cc1cccc(Nc2ncnc3cc(OC)c(OCCCCCCC(=O)NO)cc23)c1 [CUDC-101] + O=C(CCCCCCC(=O)Nc1ccccc1)NO [Vorinostat] (partner 1 µM)
How it was run: as §1

[1] = compound: C1=CC=C2C(=C1)N=C(S2)C(C#N)C3=NC(=NC=C3)NCCC4=CN=CC=C4 + Nc1ncn([C@H]2C[C@H](O)[C@@H](CO)O2)c(=O)n1 [Decitabine] (partner 2 µM)
How it was run: as §1

[2] = compound: C1=CC=C2C(=C1)N=C(S2)C(C#N)C3=NC(=NC=C3)NCCC4=CN=CC=C4 + CS(=O)(=O)CCNCc1ccc(-c2ccc3ncnc(Nc4ccc(OCc5cccc(F)c5)c(Cl)c4)c3c2)o1 [Lapatinib] (partner 2 µM)
How it was run: as §1

Cell Line | relative viability (CUDC-101 + Dasatinib; first compound 0.01 µM) | relative viability (CUDC-101 + Dasatinib; first compound 0.03162 µM) | relative viability (CUDC-101 + Dasatinib; first compound 0.1 µM) | relative viability (CUDC-101 + Dasatinib; first compound 0.3162 µM) | relative viability (CUDC-101 + Dasatinib; first compound 1 µM) | relative viability (CUDC-101 + Vorinostat; first compound 0.01 µM) | relative viability (CUDC-101 + Vorinostat; first compound 0.03162 µM) | relative viability (CUDC-101 + Vorinostat; first compound 0.1 µM) | relative viability (CUDC-101 + Vorinostat; first compound 0.3162 µM) | relative viability (CUDC-101 + Vorinostat; first compound 1 µM) | relative viability ([1]; first compound 0.005 µM) | relative viability ([1]; first compound 0.01581 µM) | relative viability ([1]; first compound 0.05 µM) | relative viability ([1]; first compound 0.1581 µM) | relative viability ([1]; first compound 0.5 µM) | relative viability ([2]; first compound 0.005 µM) | relative viability ([2]; first compound 0.01581 µM) | relative viability ([2]; first compound 0.05 µM) | relative viability ([2]; first compound 0.1581 µM) | relative viability ([2]; first compound 0.5 µM)
NCI-H2405 | 0.217 | 0.193 | 0.228 | 0.214 | 0.191 | 1.1 | 1.04 | 0.968 | 0.953 | 0.568 | 0.658 | 0.771 | 0.737 | 0.689 | 0.725 | 1.05 | 0.817 | 1.11 | 1.11 | 1.02
NCI-H596 | 0.666 | 0.603 | 0.601 | 0.604 | 0.588 | 0.569 | 0.605 | 0.501 | 0.735 | 0.501 | 0.711 | 1 | 1 | 0.919 | 0.985 | 0.921 | 1.11 | 1.07 | 1.23 | 0.937
NCI-H2009 | 0.321 | 0.281 | 0.396 | 0.443 | 0.338 | 0.766 | 0.639 | 0.764 | 0.705 | 0.506 | 0.37 | 0.386 | 0.379 | 0.427 | 0.397 | 0.899 | 0.892 | 0.977 | 1.11 | 1.02
NCI-H2170 | 0.633 | 0.512 | 0.583 | 0.475 | 0.363 | 0.809 | 0.821 | 0.77 | 0.859 | 0.549 | 0.419 | 0.46 | 0.425 | 0.468 | 0.488 | – | 0.258 | 0.249 | 0.285 | 0.259
NCI-H1648 | – | – | – | – | – | 0.631 | 0.378 | 0.333 | 0.225 | 0.22 | – | 0.438 | – | 0.535 | 0.388 | – | – | – | – | –
NCI-H1623 | 0.561 | 0.501 | 0.429 | 0.676 | 0.486 | – | – | – | – | – | – | – | – | – | – | – | – | – | – | –
A549 | – | – | – | – | – | – | – | – | – | – | 0.239 | 0.33 | 0.239 | 0.312 | 0.323 | 1.04 | 0.97 | 1.04 | 1.07 | 0.942
HCC-44 | – | – | – | – | – | 1.04 | 1.2 | 1.13 | 1.02 | 1.11 | 0.956 | 0.933 | 0.971 | 0.978 | 1.01 | 0.848 | 1.02 | 1.01 | 1.16 | 0.823
Calu-6 | – | – | – | – | – | – | – | – | – | – | – | – | – | – | – | 0.877 | 1.05 | 0.959 | 1.18 | 0.958
NCI-H1703 | – | – | – | – | – | – | – | – | – | – | – | – | – | – | – | 0.869 | 1.11 | 0.851 | 1.1 | 1.19
NCI-H1299 | – | – | – | – | – | – | – | – | – | – | – | – | – | – | – | 0.941 | 0.991 | 0.946 | 0.998 | 0.918
ChaGo-K-1 | 0.571 | 0.612 | 0.526 | 0.539 | 0.529 | 0.756 | 0.727 | 0.79 | 0.698 | 0.578 | 0.488 | 0.53 | 0.518 | 0.542 | 0.511 | – | – | – | – | –
NCI-H2228 | 0.542 | 0.543 | 0.536 | 0.52 | 0.4 | 0.611 | 0.575 | 0.585 | 0.783 | 0.526 | – | – | – | – | – | 0.725 | 1.01 | 1.18 | 1.46 | 0.924
CAL-12T | 0.72 | 0.372 | 0.346 | 0.514 | 0.318 | 0.761 | 0.803 | 0.919 | 0.828 | 0.487 | – | – | – | – | – | 0.782 | – | – | 0.675 | 0.674
SW 900 | 0.455 | 0.68 | 0.791 | 0.602 | 0.618 | 0.48 | 0.569 | 0.31 | 0.49 | 0.217 | 0.393 | 0.342 | 0.401 | 0.557 | 0.391 | – | – | – | – | –
NCI-H441 | 0.691 | 0.523 | 0.683 | 0.646 | 0.678 | 0.968 | 0.915 | 0.784 | 0.937 | 0.618 | 0.267 | 0.303 | 0.252 | 0.246 | 0.239 | – | – | – | – | –
NCI-H522 | 0.931 | 0.758 | 0.928 | 0.842 | 0.596 | 0.758 | 0.769 | 1.09 | 0.921 | 0.779 | 0.718 | 0.651 | 0.607 | 0.639 | 0.66 | – | – | – | – | –
IA-LM | – | – | – | – | – | 0.997 | 0.915 | 0.93 | 0.797 | 0.586 | – | – | – | – | – | – | 1.02 | 0.824 | 0.888 | 0.673
NCI-H1792 | 0.764 | 0.683 | 0.856 | 0.819 | 0.691 | – | – | – | – | – | – | 0.736 | 0.638 | 0.675 | 0.388 | – | 0.881 | 0.936 | 1.52 | 0.661
LCLC-103H | 0.524 | 0.384 | 0.451 | 0.478 | 0.46 | 0.759 | 0.81 | 0.7 | 0.692 | 0.61 | 0.723 | 0.731 | 0.69 | 0.762 | 0.751 | – | – | – | – | –
